Values after ≈ are worked out from the molar mass of the structure shown.
Key:
[1] = in vivo; conditions: male, Dutch Belted, rabbit, topical or ocular, 4 mg
Excerpt: The animals' eyes were examined by a board certified veterinary ophthalmologist using a slitlamp biomicroscope and an indirect ophthalmoscope. The exams occurred predose and on the indicated study days prior to sacrifice, as applicable. On specified days, at least two animals/time point were euthanized for the collection of blood (for plasma) and ocular tissues (aqueous humor, vitreous humor, retina, and sclera/choroid-RPE).
For the initial study, the animals were acclimated to study conditions for 16 days prior to dose administration. At dosing, the animals weighed 1721 to 1941 g and were 5 months of age. All animals were housed in individual, suspended, stainless steel cages during acclimation and the test period. Certified Hi-Fiber Rabbit Diet #5325 (PMI) was provided. Water was provided fresh daily, ad libitum. Environmental controls for the animal room were set to maintain a temperature of 16 to 22° C. (Deviation), a relative humidity of 50±20% (Deviation), and a 12-hour light/12-hour dark cycle. […]
The dosing formulation was drawn up into a 1-mL luer-lock syringe using a standard 21-gauge, 1-inch needle; any bubbles were expressed, and the standard needle was replaced by a 30-gauge microneedle 700 μm in length. […] Any dosing observations were recorded. […]

[2] = Ocular distribution and pharmacokinetics after suprachoroidal injection of CLS-AX, 0.03 or 0.1 mg/eye (second study); assay type: in vivo, male pigmented Dutch Belted rabbits; conditions: for tmax: Retina; for half-life: sclera/choroid-RPE (SCR), SCR; for Cmax: topical or ocular, study day 2
[3] = Solubility of the API (product profile); assay type: physicochemical

- half-life [1]: 102 days
- Cmax ([1]; Cmax): 857 ng/mL
- eyes having quantifiable levels in retina ([2]; 0.03 mg/eye, days 31 and 61): 1 of 4
- eyes having quantifiable levels in retina ([2]; 0.1 mg/eye, Days 45 through 66): 1 of 4
- tmax ([2]; 0.03 mg/eye): 1 days
- tmax ([2]; 0.1 mg/eye): 1 days
- concentration at 15 day ([2]; male, Dutch Belted, rabbit, other: suprachoroidal injection, retina, 0.03 mg/eye, by day 15, essentially below, read-out: mean retina concentrations (limit of quantitation)): < 16.7 ng/g
- half-life ([2]; male, Dutch Belted, rabbit, other: suprachoroidal injection, 0.03 mg/eye): 10.7 days
- half-life ([2]; male, Dutch Belted, rabbit, other: suprachoroidal injection, 0.1 mg/eye): 15.8 days
- Cmax ([2]; male, Dutch Belted, rabbit, retina, 0.03 mg/eye): 4480 ng/g
- Cmax ([2]; male, Dutch Belted, rabbit, retina, 0.1 mg/eye): 6260 ng/g
- mean AUC0-t, higher dose versus lower dose ([2]; retina, 0.1 vs 0.03 mg/eye): 1.6 fold
- mean Cmax, higher dose versus lower dose ([2]; retina, 0.1 vs 0.03 mg/eye): 1.4 fold
- Solubility (solvent) [3]: DMSO
- solubility ([3]; in water): 0.2 µg/mL (≈ 0.517 µM)
Compound: CNC(=O)c1ccccc1Sc1ccc2c(/C=C/c3ccccn3)n[nH]c2c1 [Axitinib]
